Results as given in patent US5478812A, “Chromanol glycoside and method for production thereof” (CCI Corporation, priority 1993, dated 1995).
Values after ≈ are worked out from the molar mass of the structure shown. Read-outs that look alike come from different tables or passages of the source.

What was measured:
[1] = pH stability; type: physicochemical; settings: 5.5 mM, buffer/ethanol 5:1 v/v, read-out: Residual amounts (%) after 100 hours
Excerpt: The chromanol glycoside obtained in Examples 1 to 5 [6-hydroxy-2,5,7,8-tetramethyl chroman-2-methyl-α-D-glucopyranoside represented by the aforementioned formula (4)], the chromanol glycoside obtained in Examples 6 to 8 [6-hydroxy-2,5,7,8-tetramethyl chroman-2-ethyl-α-D-glucopyranoside represented by the aforementioned formula (7)], the chromanol glycoside obtained in Examples 4 and 5 [6-hydroxy-2,5,7,8-tetramethyl chroman-2-methyl-α-D-maltopyranoside represented by the aforementioned formula (5)], and the chromanol glycoside obtained in Example 8 [6 -hydroxy-2,5,7,8-tetramethyl chroman-2-ethyl-α-D-maltopyranoside represented by the aforementioned formula (8)] were tested for pH stability. This test was specifically performed by incubating a 5.5 mM chromanol glycoside solution (buffer/ethanol, 5:1 v/v) having a varying pH value. At regular intervals, aliquots of the reaction mixture were withdrawn and the residual amounts of chromanol glycoside were measured by HPC. For the purpose of comparison, the 2-substituted alcohols represented by the aforementioned formulas (3) and (6) and Trolox were similarly tested.
It is clearly noted from the test results that the conversion of 2-substituted alcohols into respective glycosides enhances pH stability. The buffer used for the test were 100 mM acetate buffer of pH 5.5, 100 mM phosphate buffer of pH 7.0, and 100 mM tris-HCl buffer of pH 8,5.

[2] = solubility in water; type: physicochemical; settings: water, 25 °C, constant stirring at 200 rpm; HPLC; read-out: solubility in water (amounts of sample dissolved in 1 ml of water)
Excerpt: The chromanol glycoside obtained in Examples 1 to 5 [6-hydroxy-2,5,7,8-tetramethyl chroman-2-methyl-α-D-glucopyranoside represented by the aforementioned formula (4)], the chromanol glycoside obtained in Examples 6 to 8 [6-hydroxy-2,5,7,8-tetramethyl chroman-2-ethyl-α-D-glucopyranoside represented by the aforementioned formula (7)], the chromanol glycoside obtained in Examples 4 and 5 [6-hydroxy-2,5,7,8-tetramethyl chroman-2-methyl-α-D-maltopyranoside represented by the aforementioned formula (5)], and the chromanol glycoside obtained in Example 8 [6-hydroxy-2,5,7,8-tetramethyl chroman-2-ethyl-α-D-maltopyranoside represented by the aforementioned formula (8)] were tested for solubility in water. Specifically, this test was performed by adding an excess amount of a given chromanol glycoside to 1 ml of water. The reaction mixture was incubated at 25° C. for […] with constant stirring at 200 rpm. After 100 hours, the reaction mixture was transferred into a membrane filter (produced by Nihon Millipore Ltd. and marketed under trademark designation of "HPLC Sample Prep C02-LG") and insoluble substances were removed by centrifugation (4,100×g, 10 minutes, 20° C.). The filtered solution was subjected to HPLC to determine the amount of chromanol glycoside remaining in the aqueous solution. For the purpose of comparison, the 2-substituted alcohols represented by the aforementioned formulas (3) and […] and Trolox were similarly tested.
The numerals given in the tables represent the amounts of sample dissolved in 1 ml of water.

[3] = background statement, in words; cited from earlier work
[4] = hydroperoxidation of methyl linoleate via radical chain reaction in hexane/isopropyl alcohol; type: biochemical; settings: 0.1 μmol antioxidant in 1.1 ml hexane/isopropyl alcohol 1:1; 37 °C; oil-soluble radical generator; in words
Excerpt: Antioxidant activity on the chromanol glycoside obtained in Examples 1 to 5 [6-hydroxy-2,5,7,8-tetramethyl chroman-2-methyl-α-D-glucopyranoside represented by the aforementioned formula (4)], the chromanol glycoside obtained in Examples 6 to 8 [6-hydroxy-2,5,7,8-tetramethyl chroman-2-ethyl-α-D-glucopyranoside represented by the aforementioned formula (7)], the chromanol glycoside obtained in Examples 4 and 5 [6-hydroxy-2,5,7,8-tetramethyl chroman-2-methyl-α-D-maltopyranoside represented by the aforementioned formula (5)], and the chromanol glycoside obtained in Example 8 [6-hydroxy-2,5,7,8-tetramethyl chroman-2-ethyl-α-D-maltopyranoside represented by the aforementioned formula (8)] was investigated by measuring the hydroperoxidation of methyl linoleate via radical chain reaction. Specifically, this test was performed by incubating 132 μmol of methyl linoleate, 16.5 μmol of an oil-soluble radical generator [2,2'-azo-bis(2,4-dimethyl valeronitrile)], 0.1 μmol of antioxidant in 1.1 ml of a hexane/isopropyl alcohol (1:1 v/v), and the mixture was incubated at 37° C. At regular intervals, aliquots of the reaction mixture were withdrawn and the amount of methyl linoleate hydroperoxides were measured by HPLC. […] EXAMPLE 10

[5] = antioxidant activity using liposomal membranes (phosphatidylcholine hydroperoxides); type: biochemical; settings: 0.1 μmol antioxidant in 1.1 ml 10 mM tris-HCl buffer pH 7.4; water-soluble radical generator; in words
Excerpt: Antioxidant activity on the chromanol glycoside obtained in Examples 1 to 5 [6-hydroxy-2,5,7,8-tetramethyl chroman-2-methyl-α-D-glucopyranoside represented by the aforementioned formula (4)[, the chromanol glycoside obtained in Examples 6 to 8 [6-hydroxy-2,5,7,8-tetramethyl chroman-2-ethyl-α-D-glucopyranoside represented by the aforementioned formula (7)], the chromanol glycoside obtained in Examples 4 and 5 [6-hydroxy-2,5,7,8-tetramethyl chroman-2-methyl-α-D-maltopyranoside represented by the aforementioned formula (5)], and the chromanol glycoside obtained in Example 8 [6-hydroxy-2,5,7,8-tetramethyl chroman-2-ethyl-α-D-malto-pyranoside represented by the aforementioned formula (8)] was investigated by using a liposonal membranes. Specifically, this test was performed by adjusting a reaction solution consisting of 5.5 μmol of a multilameller liposomes of egg yolk phosphatidylcholine, 16.5 μmol of a water-soluble radical generator [2,2'-azo-bis(2-amidinopropane) dihydrochloride], and 0.1 μmol of antioxidant in 1.1 ml of a 10 mM tris-HCl buffer (pH 7.4). At regular intervals, aliquots of the reaction mixture were withdrawn and the amount of phosphatidylcholine hydroperoxides were measured by HPLC.

[6] = thermal stability; type: physicochemical; settings: 5 mM solution in water/ethanol 1:3 v/v, read-out: Residual amounts (%) after 100 hours
Excerpt: The chromanol glycoside obtained in Examples 1 to 5 [6-hydroxy-2,5,7,8-tetramethyl chroman-2-methyl-α-D-glucopyranoside represented by the aforementioned formula (4)], the chromanol glycoside obtained in Examples 6 to 8 [6-hydroxy-2,5,7,8-tetramethyl chroman-2-ethyl-α-D-glucopyranoside represented by the aforementioned formula (7)], the chromanol glycoside obtained in Examples 4 and 5 [6-hydroxy-2,5,7,8-tetramethyl chroman-2methyl-α-D-maltopyranoside represented by the aforementioned formula (5)], and the chromanol glycoside obtained in Example 8 [6-hydroxy-2,5,7,8-tetramethyl chroman-2-ethyl-α-D-maltopyranoside represented by the aforementioned formula (8)]were tested for thermal stability. Specifically, this test was performed by incubating a 5 mM chromanol glycoside solution (water/ethanol, 1:3 v/v) under varying temperature conditions. At regular intervals, aliquots of the reaction mixture were withdrawn and the residual amounts of chromanol glycoside were measured by HPLC. For the purpose of comparison, the 2-substituted alcohols represented by the aforementioned formulas (3) and (6), α-tocopherol, and Trolox were similarly tested.
It is clearly noted from these test results that the conversion of 2-substituted alcohols into corresponding glycosides enhances thermal stability.

[7] = acetate buffer/ethanol 5:1, pH 5.5, pH 5.5 (100 mM acetate buffer)
[8] = phosphate buffer/ethanol 5:1, pH 7, pH 7.0 (100 mM phosphate buffer)
[9] = tris-hcl buffer/ethanol 5:1, pH 8.5, pH 8.5 (100 mM tris-HCl buffer)

remaining at 100 h, 5500 µM [1, 7] | remaining at 100 h, 5500 µM [1, 8] | remaining at 100 h, 5500 µM [1, 9] | solubility [2] | Structure (SMILES) | solubility in water [3] | antioxidant activity (methyl linoleate hydroperoxides) [4] | antioxidant activity (phosphatidylcholine hydroperoxides) [5] | remaining at 100 h, 5000 µM ([6]; water/ethanol 1:3, 50 °C) | remaining at 100 h, 5000 µM ([6]; water/ethanol 1:3, 60 °C) | remaining at 100 h, 5000 µM ([6]; water/ethanol 1:3, 70 °C)
75% | 35% | 13% | 0.2 mg/mL (≈ 799 µM) | Cc1c(C)c2c(c(C)c1O)CCC(C)(C(=O)O)O2 (centres unmarked) [Trolox, 6-hydroxy-2,5,7,8-tetramethyl chroman-2-carboxylic acid, reference compound] | extremely low solubility in water |  |  |  |  | 
57% | 16% | 2% | 141 mg/mL | Cc1c(C)c2c(c(C)c1O)CCC(C)(CCO[C@H]1O[C@H](CO)[C@@H](O[C@H]3O[C@H](CO)[C@@H](O)[C@H](O)[C@H]3O)[C@H](O)[C@H]1O)O2 (stereo partly drawn) [formula (8), 6-hydroxy-2,5,7,8-tetramethyl chroman-2-ethyl-α-D-maltopyranoside] |  | excel 3,5-tert-butyl-4-hydroxytoluene and equal α-tocopherol | more effective antioxidants than ascorbic acid |  |  | 
 |  |  |  | Cc1c(C)c2c(c(C)c1O)CCC(C)(CCCC(C)CCCC(C)CCCC(C)C)O2 (stereo not drawn) [α-Tocopherol, reference compound] |  |  |  | 85% | 79% | 30%
